A short description of one data set: Rat PK. The format is in vivo. To be noted: oral bioavailability.
For data set [1], the target named is T1, full length Keap1 protein / full length NRF2 protein (Homo sapiens, UniProt Q14145).
T1 construct: full length NRF2 protein and full length Keap1 protein (Keap1 exists a dimer) are used
Kind of data set: NRF2-Keap1 TR-FRET assay. The format is binding. To be noted: full length Keap1-FlagHis and biotin-NRF2. The source says:
In the NRF2-Keap1 TR-FRET (time-resolved fluorescence resonance energy transfer) assay, full length NRF2 protein and full length Keap1 protein (Keap1 exists a dimer) are used. The assay detects the ability of compound to displace the binding of FlagHis-tagged Keap1 with biotinylated, Avi-tagged NRF2 protein. Biotin-NRF2 binds to streptavidin-europium (a component of the detection mix) and Keap1-FlagHis is recognized by anti-Flag APC (allophycocyanin) antibody (also a component of the detection mix). If binding occurs between the two proteins, there will be an energy transfer from the Eu+3 (donor) at 615 nm to the APC (acceptor) at 665 nm. A potential Keap1 inhibitor will cause a reduction in the TR-FRET signal by interfering with the binding of Keap1 to NRF2.
One hundred nanoliters of 100× compound dose response curves (serial 3-fold dilutions) in DMSO are stamped using an Echo liquid handling system (Labcyte) into 384-well, low volume, black assay plates (Greiner, #784076), with DMSO in columns 6 and 18. The top concentration of compound is located in columns 1 and 13. All reagents are diluted in assay buffer (50 mM Tris, pH 8.0, 5 mM MgCl2, 100 mM NaCl, 0.005% BSA, 1 mM DTT, and 2 mM CHAPS). The BSA, DTT, and CHAPS are added to the assay buffer on the day of assay. […] Plates are spun at 500 rpm for 1 minute, incubated for 1 hour at RT, and read on an Envision plate reader using a 320 nm excitation filter and 615 nm and 665 nm emission filters. Compound response (% inhibition) and potency (pIC50) are calculated based on the ratio of the two emissions (665 nm/615 nm) and then the transformed data is normalized against controls in the assay (control 1=1% DMSO in the presence of NRF2 and Keap1 protein and control 2=1% DMSO in the absence of protein). […] The % inhibition values are calculated from the ratio (transformed) data by the equation: 100−(100*(compound response−average control 2)/(average control 1−average control2)). […]
(In TR-FRET formats the signal depends on donor and acceptor labels being close together.)

For data set [2], the target named is T2, Kelch domain (321-609) of Keap1 / TAMRA-labeled NRF2 ETGE peptide (Homo sapiens, UniProt Q14145).
T2 construct: the Kelch domain (321-609) of Keap1 is used
T2 sequence (Q14145 321-609): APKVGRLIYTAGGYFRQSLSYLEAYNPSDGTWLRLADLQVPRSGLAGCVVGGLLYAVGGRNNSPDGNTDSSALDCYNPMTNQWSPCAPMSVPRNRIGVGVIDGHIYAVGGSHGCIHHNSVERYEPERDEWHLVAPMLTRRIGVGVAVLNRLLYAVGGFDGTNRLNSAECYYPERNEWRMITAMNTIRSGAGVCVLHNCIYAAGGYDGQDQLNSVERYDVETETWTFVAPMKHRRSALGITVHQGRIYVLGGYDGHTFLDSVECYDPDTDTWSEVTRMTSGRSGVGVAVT
Kind of data set: NRF2-Keap1 FP assay (Keap1 Kelch fluorescence polarization). The format is binding. The settings on record: Keap1 (321-609) 20 nM, Tamra labelled peptide 8 nM. An excerpt: NRF2-Keap1 FP Assay One model for the NRF2-Keap1 interaction is through two binding sites in the Neh2 domain on NRF2. The two sites are referred to as the DLG binding motif (latch domain, uM affinity) and the ETGE binding motif (hinge domain, nM affinity). The Keap1 protein consists of an N-terminal region (NTR), a broad complex, tramtrack, and brick a brac domain (BTB), an intervening region (IVR), a double glycine repeat domain (DGR or Kelch), and a C-terminal region. The DLG and ETGE motifs of NRF2's Neh2 domain bind to the Kelch domain of Keap1 at different affinities. In the Keap1 Kelch fluorescence polarization (FP) assay, a TAMRA-labeled 16 mer peptide (AFFAQLQLDEETGEFL) containing the ETGE motif of NRF2 and the Kelch domain (321-609) of Keap1 is used. The assay determines if a compound interferes with the binding between Keap1 […] and the TAMRA-labeled peptide. Binding of TAMRA-labeled NRF2 peptide to Keap1 (321-609) results in a high FP signal. If a compound interferes with the binding between the peptide and the protein, it will cause the assay signal to decrease. Thus, assay signal is inversely proportional to binding inhibition. FP Assay:
100 nl of 100× compound dose response curves (serial 3-fold dilutions) in DMSO are stamped using an Echo liquid handling system (Labcyte) into 384-well low volume black assay plates (Greiner, #784076), with DMSO in columns 6 and 18. […] The plates are spun at 500 rpm for 1 min, incubated for 1 hr at room temperature, and read on an Analyst GT (Molecular Devices) equipped with excitation (530/25 nm) and emission (580/10 nm) filters designed for Tamra probes. […] Fluorescence measurements, represented as mP, are used in the transformation of the data. Compound activity is calculated based on percent inhibition, normalized against controls in the assay (Control 1 contains the Tamra peptide and Keap1 (321-609) together (0% response) and control 2 contains the Tamra peptide alone (100% response)). Data analysis is handled using the software package Abase XE (Surrey, United Kingdom. The % inhibition values are calculated by the equation: […]
(Fluorescence polarisation rises when a labelled molecule tumbles more slowly, as on binding a larger partner.)

In data set [3] the test system is NQO1 specific activity induction (marker for NRF2 activation) in BEAS-2B cells. Kind of data set: BEAS-2B NQO1 MTT assay. It is filed as cell-based. The settings on record: Homo sapiens, 48 hours with compound. An excerpt:
NAD(P)H:quinone oxidoreductase 1 (NQO1), also called DT diaphorase, is a homodimeric FAD-containing enzyme that catalyzes obligatory NAD(P)H-dependent two-electron reductions of quinones and protects cells against the toxic and neoplastic effects of free radicals and reactive oxygen species arising from one-electron reductions. The transcription of NQO1 is finely regulated by NRF2, and thus NQO1 activity is a good marker for NRF2 activation. On day one, frozen BEAS-2B cells (ATCC) are thawed in a water bath, counted, and re-suspended at a concentration of 250,000 cells/mL. Fifty microliters of cells are plated in 384 well black clear-bottomed plates. Plates are incubated at 37° C., 5% CO2 overnight. On day two, plates are centrifuged and 50 nL of compound or controls are added to the cells. Plates are then incubated at 37° C., 5% CO2 for 48 hours. On day four, medium is aspirated from the plate and crude cell lysates are made by adding 13 uL of 1× Cell Signaling Technologies lysis buffer with 1 Complete, Mini, EDTA-free Protease Inhibitor Tablet (Roche) for each 10 mL of lysis buffer. After lysis plates are incubated for 20 minutes at room temperature. Two microliters of lysate are removed for use in Cell Titer Glo assay (Promega) and MTT cocktail is prepared (Prochaska et. al. 1998) for measurement of NQO1 activity. Fifty microliters of MTT cocktail is added to each well, plate is centrifuged, and analyzed on an Envision plate reader (Perkin Elmer) using Absorbance 570 nm label for 30 minutes. Product formation is measured kinetically and the EC50 of NQO1 specific activity induction is calculated by plotting the change in absorbance (Delta OD/min) versus the log of compound concentration followed by 3-parameter fitting.

Another data set in a line: Dog PK study. The settings on record: for Dog PK Fpo: male beagle dogs, nominal 1 mg/kg, oral gavage solution vs 60-minute intravenous infusion, cassette, non-crossover. The format is in vivo. As for the experimental part: One hundred nanoliters of 100× compound dose response curves (serial 3-fold dilutions) in DMSO are stamped using an Echo liquid handling system (Labcyte) into 384-well, low volume, black assay plates (Greiner, #784076), with DMSO in columns 6 and 18. The top concentration of compound is located in columns 1 and 13. All reagents are diluted in assay buffer (50 mM Tris, pH 8.0, 5 mM MgCl2, 100 mM NaCl, 0.005% BSA, 1 mM DTT, and 2 mM CHAPS). The BSA, DTT, and CHAPS are added to the assay buffer on the day of assay. Using a Multidrop Combi (Thermo Electron Corporation) equipped with a metal tip dispenser, 5 ul of 25 nM Keap1-FlagHis protein is added to all wells of the compound plate, with the exception of the wells in column 18. Wells in column 18 receive 5 ul of assay buffer instead. Plates are centrifuged at 500 rpm for 1 minute, covered with a plate lid, and incubated at 37° C. for 2.25 hours. Plates are then removed from the incubator and allowed to cool to RT for 15 minutes. Five microliters of 50 nM biotin-NRF2 protein is then added to all wells of the plates and the plates are spun at 500 rpm for 1 minute, followed by incubating at 4° C. for 1.25 hours. The plates are then allowed to warm to RT for 15 minutes, followed by the addition of 10 ul of detection mix (1 nM Streptavidin Eu+ W1024 and 5 ug/ml mouse anti-DYKDDDDK IgG conjugated to SureLight APC antibody; both from Columbia Biosciences) to all wells. Plates are spun at 500 rpm for 1 minute, incubated for 1 hour at RT, and read on an Envision plate reader using a 320 nm excitation filter and 615 nm and 665 nm emission filters. Compound response (% inhibition) and potency (pIC50) are calculated based on the ratio of the two emissions (665 nm/615 nm) and then the transformed data is normalized against controls in the assay (control 1=1% DMSO in the presence of NRF2 and Keap1 protein and control 2=1% DMSO in the absence of protein). Data analysis is handled using the software package Abase XE (Surrey, United Kingdom). The % inhibition values are calculated from the ratio (transformed) data by the equation: 100−(100*(compound response−average control 2)/(average control 1−average control2)). For calculation of pIC50s, Abase XE uses a four parameter equation. Dog PK Study
All studies were conducted after review by the GSK Institutional Animal Care and Use Committee and in accordance with the GSK Policy on the Care, Welfare and Treatment of Laboratory Animals. A pre-study health examination that included a physical exam and complete blood count was performed on the animals prior to use on study. A catheter was temporarily placed in a cephalic or saphenous vein for sample collection on the study day. The animals were fasted overnight prior to dosing; food provided after the 4-hour blood sample was collected. The intravenous and oral solution pharmacokinetic studies were carried out using a non-crossover design; a total of four male beagle dogs were used, two per route of administration.
The dose for intravenous administration was prepared as a cassette of up to five test compounds in 20% Cavitron™ and 5% DMSO. The intravenous dose formulation was filtered through a 0.22-micron polytetrafluoroethylene (PTFE) filter prior to administration. The dose for oral solution administration was prepared as a cassette of up to five compounds in 6% Cavitron™ and 5% DMSO and was filtered through a 0.22 micron VWR PTFE filter prior to administration. […]

The values that follow come from US11028099B2, “NRF2 activators” (GLAXOSMITHKLINE INTELLECTUAL PROPERTY DEVELOPMENT LIMITED, priority 2016, dated 2021).

T1 sequence (Q14145 whole entry): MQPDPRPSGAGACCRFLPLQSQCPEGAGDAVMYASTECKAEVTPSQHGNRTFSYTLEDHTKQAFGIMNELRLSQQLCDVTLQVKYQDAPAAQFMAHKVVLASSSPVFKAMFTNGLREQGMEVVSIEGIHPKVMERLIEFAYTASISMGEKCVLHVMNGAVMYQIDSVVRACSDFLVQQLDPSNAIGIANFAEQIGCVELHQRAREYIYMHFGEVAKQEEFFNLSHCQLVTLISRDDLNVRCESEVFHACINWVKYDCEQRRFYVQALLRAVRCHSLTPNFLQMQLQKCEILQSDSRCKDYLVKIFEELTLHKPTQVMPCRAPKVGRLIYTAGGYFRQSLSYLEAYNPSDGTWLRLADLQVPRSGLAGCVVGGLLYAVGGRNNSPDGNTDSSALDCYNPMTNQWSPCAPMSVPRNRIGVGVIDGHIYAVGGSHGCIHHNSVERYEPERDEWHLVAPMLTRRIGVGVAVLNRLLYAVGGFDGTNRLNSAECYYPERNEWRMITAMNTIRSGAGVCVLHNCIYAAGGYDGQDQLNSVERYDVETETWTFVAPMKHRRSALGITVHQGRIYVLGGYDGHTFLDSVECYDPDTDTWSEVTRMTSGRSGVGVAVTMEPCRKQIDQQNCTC

Regarding `CC[C@@H]1CN(Cc2cc([C@H](CC(=O)O)c3ccc4c(nnn4C)c3C)ccc2C)Cc2ncccc2O1` [S-beta-stereocenter isomer, (S)-3-(1,4-dimethyl-1H-benzo[d][1,2,3]triazol-5-yl)-3-(3-(((R)-2-ethyl-2,3-dihydropyrido[2,3-f][1,4]oxazepin-4(5H)-yl)methyl)-4-methylphenyl)propanoic acid], the “Rat PK Fpo” value in “Rat PK” worked out at 78%. The results for the concentration for half-maximal inhibition (IC50) in data set [1] and in data set [2] were 12 nM and 50 nM, respectively. In addition, the EC50 (in general, the concentration at which the effect is half-maximal) in data set [3] is 16 nM. Further, the “Dog PK Fpo” value in the data set “Dog PK study” and in the data set “Dog PK study” (listed as S-isomer) was 11% in each case.

As to `CC[C@@H]1CN(Cc2cc([C@@H](CC(=O)O)c3ccc4c(nnn4C)c3C)ccc2C)Cc2ncccc2O1` [Formula (I) R-beta-stereocenter isomer, (R)-3-(1,4-dimethyl-1H-benzo[d][1,2,3]triazol-5-yl)-3-(3-(((R)-2-ethyl-2,3-dihydropyrido[2,3-f][1,4]oxazepin-4(5H)-yl)methyl)-4-methylphenyl)propanoic acid], the “Rat PK Fpo” value in the data set “Rat PK” worked out at 129%. The concentration for half-maximal inhibition (IC50) – broadly, the concentration that inhibits the measured activity by half – amounted to 16 nM in data set [1] and 40 nM in data set [2]. Moreover, the EC50 in data set [3] was determined as 20 nM. For the same molecule, in the data set “Dog PK study” (compound of the invention versus the S-isomer, dog), the “difference in the dog oral bioavailability” value is given as ~5 fold. The “Dog PK Fpo” value in “Dog PK study” and in the data set “Dog PK study” (listed as compound of the invention) was 52% each time.

`CC[C@@H]1CN(Cc2cc(C(CC(=O)O)c3ccc4c(nnn4C)c3C)ccc2C)Cc2ncccc2O1` (mixture of isomers) [Beta-stereocenter 50/50 mixture, 3-(1,4-Dimethyl-1H-benzo[d][1,2,3]triazol-5-yl)-3-(3-(((R)-2-ethyl-2,3-dihydropyrido[2,3-t][1,4]oxazepin-4(5H)-yl)methyl)-4-methylphenyl)propanoic acid]: the “Rat PK Fpo” value in the data set “Rat PK” came to 177%. Moreover, the values for the IC50 in data set [1] and in data set [2] were 25 nM and 63 nM, respectively. The EC50 in data set [3] was 20 nM.
